pIC50, pKd: −log10 of the molar value.

One test concerns the target T1, human catalytic MMP9 (Homo sapiens, UniProt P14780).
T1 construct: purchased BioMol SE-244
Briefly: Catalytic MMP9 enzyme assay (fluorogenic peptide P-126). Format: biochemical.

For test [1], the target named is T2, proMMP9(20-445;ΔFnII) (SEQ ID NO:6) (Homo sapiens, UniProt P14780, DEL216-390).
T2 construct: amino acid pairs including: 29-215/391-444, 67-215/391-444, and 20-215/391-445, respectively; start methionine (N); made in house; host or cells: E. coli BL21(DE3) RIL
T2 sequence (P14780 with tags, fused parts or gaps DEL216-390): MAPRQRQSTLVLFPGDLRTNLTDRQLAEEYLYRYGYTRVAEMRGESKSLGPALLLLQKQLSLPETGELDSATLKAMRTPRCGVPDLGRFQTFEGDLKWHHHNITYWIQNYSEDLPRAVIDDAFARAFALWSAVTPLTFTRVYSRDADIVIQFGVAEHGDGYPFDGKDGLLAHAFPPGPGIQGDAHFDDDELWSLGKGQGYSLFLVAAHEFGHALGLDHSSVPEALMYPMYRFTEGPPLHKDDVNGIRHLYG
Briefly: ThermoFluor binding assay with proMMP9(20-445;ΔFnII). The essentials:
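Thermal shift with 1,8-ANS dye, heating from 40 to 90 °C at 1 °C/min. Fluorescence excited at 380–400 nm and read at 500±25 nm. Protein was buffer-exchanged by desalting, and binding fitted using heat capacity and thermodynamic parameters from DSC and ThermoFluor dosing data, with DMSO reference wells.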
(DSF heats the sample and reads unfolding from a dye or from intrinsic fluorescence.)

The target of test [2] is T3, proMMP9(67-444;ΔFnII) (SEQ ID NO:5) (Homo sapiens, UniProt P14780, DEL216-390).
T3 construct: amino acid pairs including: 29-215/391-444, 67-215/391-444, and 20-215/391-445, respectively; start methionine (N); made in house; host or cells: E. coli BL21(DE3) RIL
T3 sequence (P14780 with tags, fused parts or gaps DEL216-390): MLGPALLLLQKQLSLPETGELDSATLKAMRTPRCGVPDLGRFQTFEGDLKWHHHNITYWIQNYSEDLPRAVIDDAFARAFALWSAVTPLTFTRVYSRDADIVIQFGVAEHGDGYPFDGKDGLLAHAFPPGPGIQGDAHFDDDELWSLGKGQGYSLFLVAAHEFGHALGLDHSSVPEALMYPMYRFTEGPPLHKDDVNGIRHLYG
The test can be described thus: ThermoFluor binding assay with proMMP9(67-444;ΔFnII). The essentials:
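Thermal shift (ThermoFluor) with 1,8-ANS dye; protein desalted by buffer exchange before use. Samples heated 40 to 90 °C at 1 °C/min, excitation 380-400 nm, emission 500±25 nm. Binding fitted using unfolding thermodynamic parameters from DSC and ThermoFluor dosing data.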

In test [3] the target is T4, human catalytic MMP3, MMP3(100-265) (Homo sapiens, UniProt P08254).
T4 construct: Catalytic MMP3 was amino acids 100-265 of human MMP3 from UniProtKB/Swiss-Prot P08254; 6x-Histidine tag (C); made in house; host or cells: E. coli
The test can be described thus: Catalytic MMP3 enzyme assay (fluorogenic peptide M2110). Format: biochemical. The protocol:
Compounds were assessed for inhibition of human catalytic MMP3, MMP3(100-265) (SEQ ID NO:8), using a peptide (Mca-RPKPVE-Nva-WRK(Dnp)-NH2, Bachem M2110) that fluoresces upon cleavage by catalytic MMP3. […] The reaction volume was 100 μL. […] Final concentrations employed were 20 nM catalytic MMP3 and 20 μM M2110 substrate.

The target in test [4] is T5, full-length proMMP9(1-707) activation by catalytic MMP3 (Homo sapiens, UniProt P14780, R574P). The test can be described thus: proMMP9/MMP3 P126 Activation Assay. Format: biochemical. Further details: made in house; host or cells: E. coli (MMP3). As to conditions: proMMP9 from HEK293 cells.
Description: The assay buffer employed was 50 mM Hepes, pH 7.5, 10 mM CaCl2, 0.05% Brij-35. DMSO was included at a final concentration of 2%, arising from the test compound addition. […] The reaction volume was 50 μL. […] Initial velocities were plotted by use of a four-parameter logistics equation (GraphPad Prism® software) for determination of IC50.
In test [5] the target is T5, full-length proMMP9(1-707) activation by catalytic MMP3. The test can be described thus: ProMMP9/MMP3 DQ Gelatin Activation Assay.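 Note: readout is fluorescence of quenched fluorescein gelatin cut by activated MMP9, 30 min activation at 37 °C, inhibition relative to DMSO-only controls with EDTA as blank.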 The format is biochemical. Further details: made in house; host or cells: COS-1 (proMMP9); E. coli (MMP3). The conditions noted are these: proMMP9 from COS-1 cells; read-out: ProMMP9/MMP3 DQ gel, IC50.
Description: Compounds were assessed for inhibition of proMMP9 activation by catalytic MMP3 using a quenched fluorescein gelatin substrate (DQ gelatin, Invitrogen D12054) that fluoresces upon cleavage by activated MMP9. The assay buffer employed was 50 mM Hepes, pH 7.5, 10 mM CaCl2, 0.05% Brij-35. DMSO was included at a final concentration of 0.2%, arising from the test compound addition. […] Test compounds in DMSO were diluted 250-fold in assay buffer at 4× the final concentration. The reaction volume was 12 μL, and all reactions were conducted in triplicate. […] The plate was sealed and incubated for 30 min at 37° C. […] Immediately following the 30 min incubation, 4 μL of 40 μg/ml DQ gelatin substrate was added (freshly diluted in assay buffer), and incubated for 10 min at room temperature. […] Reactivity of residual MMP3 towards DQ gelatin was minimal under these conditions. Percent inhibition of test compounds were determined from suitable positive (DMSO only in assay buffer) and negative (EDTA added prior to reaction initiation) controls. Plots of % inhibition vs. test compound concentration were fit to a four-parameter logistics equation (GraphPad Prism® software) for determination of IC50.

T1 sequence (P14780 107-445 limits assumed): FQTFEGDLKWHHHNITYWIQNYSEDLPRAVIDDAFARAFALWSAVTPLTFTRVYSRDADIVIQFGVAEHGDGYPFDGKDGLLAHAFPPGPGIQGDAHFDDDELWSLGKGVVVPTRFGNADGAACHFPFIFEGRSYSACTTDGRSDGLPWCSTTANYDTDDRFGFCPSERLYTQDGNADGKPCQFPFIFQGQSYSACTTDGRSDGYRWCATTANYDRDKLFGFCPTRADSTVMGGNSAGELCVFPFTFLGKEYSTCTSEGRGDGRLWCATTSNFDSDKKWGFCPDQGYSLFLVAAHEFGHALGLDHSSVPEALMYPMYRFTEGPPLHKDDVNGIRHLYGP
T5 sequence (P14780 20-707 R574P): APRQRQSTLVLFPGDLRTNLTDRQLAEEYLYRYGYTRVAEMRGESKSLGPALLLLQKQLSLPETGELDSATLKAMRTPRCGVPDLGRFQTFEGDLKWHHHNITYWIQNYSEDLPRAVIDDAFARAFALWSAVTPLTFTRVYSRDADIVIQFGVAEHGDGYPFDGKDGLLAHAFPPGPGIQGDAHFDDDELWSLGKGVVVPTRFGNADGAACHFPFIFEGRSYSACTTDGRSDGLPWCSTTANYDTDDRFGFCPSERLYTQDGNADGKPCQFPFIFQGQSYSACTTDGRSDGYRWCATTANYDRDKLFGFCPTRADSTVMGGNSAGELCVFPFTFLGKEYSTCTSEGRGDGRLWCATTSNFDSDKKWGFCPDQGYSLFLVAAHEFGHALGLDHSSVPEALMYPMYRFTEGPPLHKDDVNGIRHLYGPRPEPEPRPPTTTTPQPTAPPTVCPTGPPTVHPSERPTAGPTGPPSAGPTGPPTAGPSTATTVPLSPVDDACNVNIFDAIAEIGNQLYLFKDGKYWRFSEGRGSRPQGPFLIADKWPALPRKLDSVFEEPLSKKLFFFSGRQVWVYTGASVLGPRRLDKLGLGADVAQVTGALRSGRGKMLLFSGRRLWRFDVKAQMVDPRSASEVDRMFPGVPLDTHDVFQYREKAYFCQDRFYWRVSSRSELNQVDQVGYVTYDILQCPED
T4 sequence (P08254 with tags, fused parts or gaps): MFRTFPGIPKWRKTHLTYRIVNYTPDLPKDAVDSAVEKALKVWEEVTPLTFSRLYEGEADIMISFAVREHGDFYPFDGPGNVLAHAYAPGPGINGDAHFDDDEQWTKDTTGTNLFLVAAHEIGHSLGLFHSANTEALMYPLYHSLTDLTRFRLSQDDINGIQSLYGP
Description for human catalytic MMP9: The assay buffer employed was 50 mM Hepes, pH 7.5, 10 mM CaCl2, 0.05% Brij-35. DMSO was included at a final concentration of 2%, arising from the test compound addition. The reaction volume was 100 μL. […] Initial velocities were plotted by use of a four-parameter logistics equation (GraphPad Prism® software) for determination of IC50, if required.

As usually defined, the pKd is the negative decadic logarithm of the Kd, by convention in mol/L. A high value points to a low Kd. Consider `COc1ccc(F)cc1Nc1nc(-c2sc(N)nc2C)cs1` [Example 4, N^2-(5-Fluoro-2-methoxy-phenyl)-4′-methyl-[4,5′]bithiazolyl-2,2′-diamine.HBr], for which the pIC50 against human catalytic MMP9 is less than 4.30; in test [3], less than 4.30; in test [4] it was 5.82. For the same compound, the pKd in test [1] is 5.77; in test [2], 6.60.

For the compound `COc1ccc(Cl)cc1Nc1nc(-c2sc(NC(C)=O)nc2C)cs1` [Example 59, N-[2-(5-Chloro-2-methoxy-phenylamino)-4′-methyl-[4,5′]bithiazolyl-2′-yl]-acetamide], the pIC50 on human catalytic MMP9 is less than 4.30; in test [3] it was less than 4.30; in test [5], 6.47; in test [4] it was 6.28. Moreover, the negative-log Kd (pKd) in test [1] was 4.53; in test [2], 6.23.

For `COc1ccc(Cl)cc1Nc1nc(-c2sc(N)nc2C)cs1` [Example 67, N^2-(5-Chloro-2-methoxy-phenyl)-4′-methyl-[4,5′]bithiazolyl-2,2′-diamine], the results for the pIC50 (against human catalytic MMP9; in test [3]; in test [4]) were less than 4.30, less than 4.30 and 5.68, respectively. In addition, the results for the negative logarithm of the Kd (pKd) in test [1] and in test [2] were 5.61 and 6.50, respectively.
